SMILES strings stand for the structures. Like-named read-outs stand apart in the source and are kept apart here. A value given as a limit tells only on which side of the number the result lay.

A word on the IC50: it is the concentration at which inhibition is half-maximal.

In the assay the target is T1, glutathione S-transferase (GST)-fused full-length human Syk protein (Homo sapiens, UniProt P43405).
T1 construct: (GST)-fused full-length human Syk protein; GST (glutathione S-transferase); purchased Carna Biosciences
In words: Syk enzyme assay. It is filed as biochemical. In a few lines:
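GST-tagged full-length human Syk (baculovirus) preincubated with compound 15 min at room temperature (pH 7.0, 10 mM MgCl2), then reacted 40 min with 0.4 μM biotinylated peptide substrate and 27 μM ATP (final). Phosphorylation read by HTRF (615/665 nm) after EDTA stop; IC50 reported.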

Setting [1] is: Syk enzyme assay, Test Example 1, read-out: IC50 of Syk-inhibitory activity.

Regarding `COc1cc(Nc2nc(N[C@@H]3COCC[C@@H]3N)c(F)cc2C(N)=O)ccn1` [Example 006-532, 6-(((3S,4S)-4-aminotrahydro-2H-pyran-3-yl)amino)-5-fluoro-2-((2-methoxypyridin-4-yl)amino)nicotinamide], the IC50 under setting [1] lay within 100 to 1000 nM.

On to `NC(=O)c1cc(F)c(N[C@H](c2ccccc2)[C@@H](N)c2ccccc2)nc1Nc1cccc(-n2nccn2)c1` (racemic) [Example 006-138, 2-((3-(2H-1,2,3-triazol-2-yl)phenyl)amino)-6-(((1R,2S)-2-amino-1,2-diphenylethyl)amino)-5-fluoronicotinamide 2-((3-(2H-1,2,3-triazol-2-yl)phenyl)amino)-6-(((1S,2R)-2-amino-1,2-diphenylethyl)amino)-5-fluoronicotinamide], for which, under setting [1], the half-maximal inhibitory concentration (IC50) lay within 10 to 50 nM.

With `C[C@H](N)[C@@H](C)Nc1nc(Nc2ccnc(-n3nccn3)c2)c(C(N)=O)cc1F` (racemic) [Example 006-189, 2-((2-(2H-1,2,3-triazol-2-yl)pyridin-4-yl)amino)-6-(((2R,3S)-3-aminobutan-2-yl)amino)-5-fluoronicotinamide 2-((2-(2H-1,2,3-triazol-2-yl)pyridin-4-yl)amino)-6-(((2S,3R)-3-aminobutan-2-yl)amino)-5-fluoronicotinamide], the IC50 under setting [1] lay within 10 to 50 nM.

In the case of `COc1ccc(C(=O)Nc2cncc(Nc3nc(NC4CCCCC4N)c(F)cc3C(N)=O)c2)c(OC)c1` (stereo not shown) [Example 027-019], the IC50 under setting [1] lay within 10 to 50 nM.

As to `NC(=O)c1cc(F)c(N[C@@H]2CCCC[C@@H]2N)nc1Nc1ccc2nccn2c1` (relative stereo) [Example 004-130, 6-(cis-2-aminocyclohexylamino)-5-fluoro-2-((imidazo[1,2-a]pyridin-6-yl)amino)-nicotinamide], under setting [1], the IC50 lay within 100 to 1000 nM.

Take `CC[C@H](N)[C@@H](CC)Nc1nc(Nc2ccc3cnn(C)c3c2)c(C(N)=O)cc1F` [Example 006-366, 6-(((3R,4S)-4-aminohexan-3-yl)amino)-5-fluoro-2-((1-methyl-1H-indazol-6-yl)amino)nicotinamide]: under setting [1], the IC50 is 50 to 100 nM.

As to `NC(=O)c1cc(F)c(NC2CCCCC2N)nc1Nc1ccnc(-c2cccc3cnccc23)c1` (stereo not shown) [Example 002-180], under setting [1], the IC50 was in the range of 50 to 100 nM.

As to `CCNc1nc(Nc2ccc3cn[nH]c3c2)c(C(N)=O)cc1F` [Example 006-018, 6-(ethylamino)-5-fluoro-2-((1H-indazol-6-yl)amino)nicotinamide], the IC50 under setting [1] lay within 50 to 100 nM.

Regarding `NC(=O)c1cc(F)c(N[C@@H]2CCCC[C@@H]2N)nc1Nc1cc(C(F)(F)F)cc2c1ccn2CCN1CCOCC1` [Example 004-087], the IC50 under setting [1] was below 10 nM.

As for `NC(=O)c1cc(F)c(NCc2cccnc2)nc1Nc1ccc2ncccc2c1` [Example 012-017], the IC50 under setting [1] fell in the range of 100 to 1000 nM.

Turning to `CN(C)C(=O)c1cc2c(Nc3nc(N[C@@H]4CCCC[C@@H]4N)c(F)cc3C(N)=O)ccnc2n1C` [Example 029-009], the IC50 under setting [1] fell in the range of 100 to 1000 nM.

For the compound `NC(=O)c1cc(F)c(N[C@@H]2CCCC[C@@H]2N)nc1Nc1cnc(N2CCOCC2)c(-n2nccn2)c1` [Example 006-533, 6-(((1R,2S)-2-aminocyclohexyl)amino)-5-fluoro-2-((6-morpholino-5-(2H-1,2,3-triazol-2-yl)pyridin-3-yl)amino)nicotinamide], under setting [1], the IC50 was 10 to 50 nM.

`NC(=O)c1cc(F)c(N[C@@H]2CCCC[C@@H]2N)nc1Nc1cc(F)c2c(ccn2CCN2CCOCC2)c1` (relative stereo) [Example 004-080, 6-(cis-2-aminocyclohexylamino)-5-fluoro-2-((7-fluoro-1-(2-morpholinoethyl)-1H-indol-5-yl)amino)nicotinamide]: under setting [1], the IC50 is below 10 nM.

As for `NC(=O)c1cc(F)c(NC2CCCCC2N)nc1Nc1cncc(NC(=O)c2cccc(F)c2)c1` (stereo not shown) [Example 027-027], the IC50 under setting [1] is 10 to 50 nM.

Regarding `CCOc1nccc2cc(Nc3nc(N[C@@H]4CCCC[C@@H]4N)c(F)cc3C(N)=O)ccc12` (relative stereo) [Example 004-165, 6-(cis-2-aminocyclohexylamino)-2-((1-ethoxyisoquinolin-6-yl)amino)-5-fluoronicotinamide], under setting [1], the IC50 was below 10 nM.

With `CCOc1ccc2cc(Nc3nc(N[C@@H]4CCCC[C@@H]4N)c(F)cc3C(N)=O)cnc2c1` (relative stereo) [Example 004-173, 6-(cis-2-aminocyclohexylamino)-2-((7-ethoxyquinolin-3-yl)amino)-5-fluoronicotinamide], under setting [1], the IC50 is below 10 nM.

As to `CC(C)C[C@@H](Nc1nc(Nc2ccc3ncccc3c2)c(C(N)=O)cc1F)c1ncc[nH]1` [Example 012-030], the IC50 under setting [1] is 100 to 1000 nM.

On to `NC(=O)c1cc(F)c(N[C@@H](CO)c2ccccc2)nc1Nc1ccc2ncccc2c1` [Example 012-024], for which, under setting [1], the IC50 lay within 100 to 1000 nM.

As for `COc1ccc(F)c(-c2cncc(Nc3nc(N[C@@H](CN)CC(C)C)c(F)cc3C(N)=O)c2)c1` [Example 006-320, (R)-6-((1-amino-4-methylpentan-2-yl)amino)-5-fluoro-2-((5-(2-fluoro-5-methoxyphenyl)pyridin-3-yl)amino)nicotinamide], the IC50 under setting [1] lay in the range of 50 to 100 nM.

Turning to `NC(=O)c1cc(F)c(N[C@@H]2CCCC[C@@H]2N)nc1Nc1ccn2ccnc2c1` (relative stereo) [Example 004-131, 6-(cis-2-aminocyclohexylamino)-5-fluoro-2-((imidazo[1,2-a]pyridin-7-yl)amino)-nicotinamide], under setting [1], the 50% inhibitory concentration (IC50) was 10 to 50 nM.

Take `CC(C)(C)[C@H](CN)Nc1nc(Nc2ccc3ncccc3c2)c(C(N)=O)cc1F` [Example 006-162, (R)-6-((1-amino-3,3-dimethylbutan-2-yl)amino)-5-fluoro-2-(quinolin-6-ylamino)nicotinamide]: the half-inhibitory concentration (IC50) under setting [1] was 50 to 100 nM.

Turning to `CCOc1ccc2cc(Nc3nc(NC4CCCCC4N)c(F)cc3C(N)=O)ccc2n1` (stereo not shown) [Example 002-103], the IC50 under setting [1] is below 10 nM.

As for `Cc1cc(C)cc(Nc2nc(NCCN)c(F)cc2C(N)=O)c1` [Example 8-2, 6-((2-aminoethyl)amino)-2-((3,5-dimethylphenyl)amino)-5-fluoro-nicotinamide], the IC50 (read-out: Syk-inhibitory activity (IC50)) is at most 1000 nM.

Regarding `NC(=O)c1cc(F)c(NC2CCCCC2N)nc1Nc1ccnc(C(F)(F)F)c1` (stereo not shown) [Example 002-050], the IC50 under setting [1] lay within 10 to 50 nM.

Regarding `COCCn1c(=O)ccc2cc(Nc3nc(NC4CCCCC4N)c(F)cc3C(N)=O)cnc21` (stereo not shown) [Example 002-116], under setting [1], the IC50 was 50 to 100 nM.

For `COc1cc(Nc2nc(NCc3cc4ccccc4[nH]3)c(F)cc2C(N)=O)cc(OC)c1` [Example 016-016], the half-maximal inhibitory concentration (IC50) under setting [1] was 100 to 1000 nM.

`NC(=O)c1cc(F)c(NC2CCCCC2N)nc1Nc1cncc(NC(=O)c2ccc3sccc3c2)c1` (stereo not shown) [Example 027-038]: the IC50 under setting [1] fell in the range of 10 to 50 nM.

For `Cc1ccccc1Nc1nc(NCCN)c(F)cc1C(N)=O` [Example 008-003], under setting [1], the IC50 was 100 to 1000 nM.

Regarding `NC(=O)c1cc(F)c(NC2CCCCC2N)nc1Nc1ccnc(-c2cccc(Cl)c2F)c1` (stereo not shown) [Example 002-146], the IC50 under setting [1] was below 10 nM.

Turning to `NC(=O)c1cc(F)c(N[C@@H]2CCCC[C@@H]2N)nc1Nc1ccc2c(F)nn(C3CC3)c2c1` [Example 006-476, 6-(((1R,2S)-2-aminocyclohexyl)amino)-2-((1-cyclopropyl-3-fluoro-1H-indazol-6-yl)amino)-5-fluoronicotinamide], under setting [1], the IC50 is below 10 nM.

Take `NC(=O)c1cc(F)c(N[C@@H]2CCCC[C@@H]2N)nc1Nc1cnc(O)c(-n2nccn2)c1` [Example 006-504, 6-(((1R,2S)-2-aminocyclohexyl)amino)-5-fluoro-2-((6-hydroxy-5-(2H-1,2,3-triazol-2-yl)pyridin-3-yl)amino)nicotinamide]: the IC50 under setting [1] was 50 to 100 nM.

Regarding `NC(=O)c1cc(F)c(NC2CCCCC2N)nc1Nc1cccc2nn(Cc3ccccc3)cc12` (stereo not shown) [Example 002-033], the 50% inhibitory concentration (IC50) under setting [1] is below 10 nM.

Turning to `NC(=O)c1cc(F)c(N[C@@H]2CCCC[C@@H]2N)nc1Nc1ccc2[nH]c(C(=O)NCCN3CCOCC3)cc2c1` (relative stereo) [Example 029-019, 5-((6-(cis-2-aminocyclohexylamino)-3-carbamoyl-5-fluoropyridin-2-yl)amino)-N-(2-morpholinoethyl)-1H-indole-2-carboxamide], the concentration for half-maximal inhibition (IC50) under setting [1] is below 10 nM.

In the case of `COCCOc1ccc2cc(Nc3nc(N[C@H](C)[C@H](C)N)c(F)cc3C(N)=O)cnc2c1` (racemic) [Example 006-183, 6-(((2R,3S)-3-aminobutan-2-yl)amino)-5-fluoro-2-((7-(2-methoxyethoxy)quinolin-3-yl)amino)nicotinamide 6-(((2S,3R)-3-aminobutan-2-yl)amino)-5-fluoro-2-((7-(2-methoxyethoxy)quinolin-3-yl)amino)nicotinamide], the IC50 under setting [1] was below 10 nM.

`CC[C@H](N)C(CC(C)C)Nc1nc(Nc2ccc3ncccc3c2)c(C(N)=O)cc1F` (stereo partly drawn) [Example 006-151, 6-(((5S)-5-amino-2-methylheptan-4-yl)amino)-5-fluoro-2-(quinolin-6-ylamino)nicotinamide]: the IC50 under setting [1] lay in the range of 10 to 50 nM.

Take `CN1CCN(c2ccc(Nc3nc(NC4CCCCC4N)c(F)cc3C(N)=O)cn2)CC1` (stereo not shown) [Example 002-021]: the IC50 under setting [1] was in the range of 10 to 50 nM.

With `CCOCCOCCn1ncc2c(Nc3nc(NC4CCCCC4N)c(F)cc3C(N)=O)cccc21` (stereo not shown) [Example 002-031], the IC50 under setting [1] was below 10 nM.

Take `COCCOc1nc2ccc(Nc3nc(NC4CCCCC4N)c(F)cc3C(N)=O)cc2nc1OCCOC` (stereo not shown) [Example 002-121]: the IC50 under setting [1] was 100 to 1000 nM.

For `CCOc1ncc(Nc2nc(N[C@@H]3CCCC[C@@H]3N)c(F)cc2C(N)=O)cc1Cl` [Example 006-570, 6-(((1R,2S)-2-aminocyclohexyl)amino)-2-((5-chloro-6-ethoxypyridin-3-yl)amino)-5-fluoronicotinamide], the half-inhibitory concentration (IC50) under setting [1] lay in the range of 10 to 50 nM.

As for `CC(C)c1cncc(Nc2nc(NC3CCCCC3N)c(F)cc2C(N)=O)c1` (stereo not shown) [Example 002-039], the IC50 under setting [1] lay in the range of 10 to 50 nM.

Source of the values: patent publication US8895585B2, “Nicotinamide derivative or salt thereof” (FUJIFILM Corporation, priority 2010, dated 2014).
